Source: publication PMC9330537, “DCLK1 promotes colorectal cancer stemness and aggressiveness via the XRCC5/COX2 axis” (Theranostics, 2022)

Molecular target: T1, DCLK1 (Doublecortin-like kinase 1) (Homo sapiens, UniProt O15075)
T1 sequence (O15075 1-740): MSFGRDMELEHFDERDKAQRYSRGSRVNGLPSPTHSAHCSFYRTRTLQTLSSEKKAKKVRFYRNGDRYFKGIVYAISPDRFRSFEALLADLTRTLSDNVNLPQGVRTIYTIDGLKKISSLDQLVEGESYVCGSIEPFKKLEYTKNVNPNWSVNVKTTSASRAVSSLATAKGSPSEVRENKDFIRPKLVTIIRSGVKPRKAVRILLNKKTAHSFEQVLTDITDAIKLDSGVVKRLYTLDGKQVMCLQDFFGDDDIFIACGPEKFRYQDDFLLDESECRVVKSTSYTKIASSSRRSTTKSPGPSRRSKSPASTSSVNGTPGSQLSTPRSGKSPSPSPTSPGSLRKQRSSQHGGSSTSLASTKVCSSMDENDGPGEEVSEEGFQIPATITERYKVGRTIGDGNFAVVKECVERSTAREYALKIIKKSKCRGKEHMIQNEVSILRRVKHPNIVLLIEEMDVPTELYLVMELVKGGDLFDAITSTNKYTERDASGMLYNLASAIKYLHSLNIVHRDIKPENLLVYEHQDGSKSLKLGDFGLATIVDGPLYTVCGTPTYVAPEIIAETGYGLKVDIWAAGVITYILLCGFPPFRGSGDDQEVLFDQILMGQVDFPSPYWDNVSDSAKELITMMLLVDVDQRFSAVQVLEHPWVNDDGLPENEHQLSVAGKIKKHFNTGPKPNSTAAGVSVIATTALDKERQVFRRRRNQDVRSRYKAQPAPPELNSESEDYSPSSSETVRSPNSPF
Experiment: DCLK1 kinase activity assay, dose response
Assay type: biochemical

**Q.** For `COc1cc(N2CCN(C)CC2)ccc1Nc1ncc2c(n1)N(C)c1ccccc1C(=O)N2CC(F)(F)F` [DCLK1-IN-1], which IC50 is on record?
**A.** 143 nM
